Assay results published in patent US7795220B2, “Conformationally constrained parathyroid hormones with alpha-helix stabilizers” (The General Hospital Corporation, priority 2003, dated 2010).
Values joined by “and” are separate entries in the source; they are usually repeats but may differ in a detail not shown here. Equal values may be shown once. Read-outs that look alike come from different tables or passages of the source. Non-standard residues stand in square brackets, D forms with d. Residues, ends and D or L forms follow the SMILES beside them. No end group written: not given here. hArg = N=C(N)NCCCC[C@H](N)C(=O)O; Ac5c = NC1(C(=O)O)CCCC1; Deg = CCC(N)(CC)C(=O)O; Ac3c = NC1(C(=O)O)CC1; Aib = CC(C)(N)C(=O)O

How the values were obtained:
[1] = molecular target: T1, P1R (recombinant P1R chimera) in HKRK-B28 cells (UniProt P25107+P25961, A364S/A509S/A517P/A524T/DEL519-521/E344G/G506A/H528S/I365V/I416T/I429T/K402R/K465R/L320I/M408V/N352H/S511P/S523T/T335G/T421L/T487S/V367L/V433I); test: biochemical; format: binding, opposum/rat chimera; conditions: for IC50: apparent binding affinity (IC50), inhibition of 125I-rPTH(1-21) analog tracer binding, B28 cells
T1 construct: the opposum P1R from the N-terminus to the mid region of TM3; the rat P1R from the mid region of TM3 to the C-terminus; expressed in transfected cells
Excerpt: (§1) Cell Culture. The cell line HKRK-B28 (Takasu, H., et al., J. Bone Miner. Res. 14:11-20 (1999)) was derived from the porcine kidney cell line, LLC-PK1 by stable transfection with plasmid DNA encoding a recombinant P1R chimera comprised of the opposum P1R from the N-terminus to the mid region of TM3 and the rat P1R from the mid region of TM3 to the C-terminus. The surface density of the P1R in these cells is ˜280,000 receptors per cell. The clonal cell line LdelNt-2 was derived from LLC-PK, cells via stable transfection with a plasmid encoding P1R-delNt, a recombinant human PTH-1 receptor construct in which most of the amino-terminal extracellular domain is deleted. These cells, as well as COS-7 cells and SaOS-2-B10 cells, were cultured at […] in T-75 flasks ([…]) in Dulbecco's modified Eagle's medium (DMEM) supplemented with fetal bovine serum (10%), penicillin G (20 units/ml), streptomycin sulfate (20 μg/ml) and amphotericin B (0.05 μg/ml) in a humidified atmosphere containing 5% CO2. Stock solutions of EGTA/trypsin and antibiotics were from GLBCO; fetal bovine serum was from Hyclone Laboratories (Logan, Utah). COS-7 cells sub-cultured in 24-well plates were transfected with plasmid DNA (200 ng per well) encoding the wild-type human P1R or truncated human P1R deleted for residues (24-181) (Shimizu, M., et al., J. Biol. Chem. 275:21836-21843 (2000)) that was purified by cesium chloride/ethidium bromide density gradient centrifugation, and FuGENE 6 transfection reagent (Roche Indianapolis Ind.) according to the manufacturer's recommended procedure. All cells, in 24-well plates, were treated with fresh media and shifted to 33° C. for 12 to 24 h prior to assay.
Competition Binding. Binding reactions were performed with HKRK-B28 cells or in COS-7 cells in 24-well plates. The cells were rinsed with 0.5 mL of binding buffer, and then treated successively with 100 μL binding buffer, 100 μL of binding buffer containing various amounts of unlabeled competitor ligand, and 100 μL of binding buffer containing ca. 100,000 cpm of ^125I-[Aib^1,3,Nle^8,Gln^10,Har^11,Ala^12,Trp^14,Arg^19,Tyr^21]rPTH(1-21) (SEQ. ID. NO. 36) (ca. 26 fmol; final volume=300 μL). Incubations were 4 to 6 h at 4° C., at which time near equilibrium conditions were attained. Cells were then placed on ice, the binding medium was removed, and the monolayer was rinsed three times with 0.5 mL of cold binding buffer. The cells were subsequently lysed with 0.5 mL 5N NaOH and counted for radioactivity. For each tracer and in each experiment, the non-specific binding was determined as the radioactivity that bound in the presence of the same unlabeled peptide at a concentration of 1 μM, and was ˜1% of total radioactivity added for each tracer. The maximum specific binding (B0) was the total radioactivity bound in the absence of competing ligand, corrected for nonspecific binding, and for each tracer, ranged from 8% to 20% of the total radioactivity added. Nonlinear regression was used to calculate binding IC50 values (see below). Scatchard transformations of homologous competition binding data derived from studies with 26 fmol of ^125I-[Aib^1,3,Nle^8,Gln^10,Har^11,Ala^12,Trp^14, Arg^19,Tyr^21]rPTH(1-21) (SEQ. ID. NO. 36) were employed for estimations of apparent equilibrium dissociation constant (kDapps) and total number of ligand binding sites (Bmax), assuming a single class of binding sites and equal affinities of the iodinated and non iodinated ligand.
Data Calculation. Calculations were performed using Microsoft® Excel. Nonlinear regression analyses of binding and cAMP dose-response data were performed using the four-parameter equation: yp=Min+[(Max−Min)/(1+(IC50/x)^slope)]. The Excel Solver function was utilized for parameter optimization, as described previously (Carter, P. H., et al., Endocrinology 140: 4972-4981 (1999); Bowen, W. P., and Jerman, J. C., Trends in Pharmacol. Sci. 16: 413-417 (1995)). […]

[2] = system: P1R (recombinant P1R chimera) in HKRK-B28 cells; test: cAMP stimulation in HKRK-B28 cells; format: cell-based, opposum/rat chimera; conditions: for EC50: intracellular cAMP accumulation, read-out: cAMP-stimulating potency (EC50); for increase in cAMP levels relative to basal: peptide at 1×10^−4M; for cAMP agonist activity at single high concentration (in words): peptide at 10^−4M; for cAMP signaling potency diminished relative to parent [M]PTH(1-14) / cAMP-stimulating potency higher than that of parent [M]PTH(1-14): relative to parent [M]PTH(1-14)
Excerpt: as §1
cAMP Stimulation. Stimulation of cells with peptide analogs was performed in 24-well plates. Cells were rinsed with 0.5 mL of binding buffer (50 mM Tris-HCl, 100 mM NaCl, 5 mM KCl, 2 mM CaCl2, 5% heat-inactivated horse serum, 0.5% fetal bovine serum, adjusted to pH 7.5 with HCl) and treated with 200 μL of cAMP assay buffer (Delbecco's modified Eagle's medium containing 2 mM 3-isobutyl-1-methylxanthine, 1 mg/mL bovine serum albumin, 35 mM Hepes-NaOH, pH 7.4) and 100 μL of binding buffer containing varying amounts of peptide analog (final volume=300 μL). The medium was removed after incubation for 30 to 60 minutes at room temperature, and the cells were frozen on dry ice, lysed with 0.5 mL 50 mM HCl, and refrozen ([…]). The cAMP content of the diluted lysate was determined by radioimmunoassay. The EC50 response values were calculated using nonlinear regression (see below).
Data Calculation. Calculations were performed using Microsoft® Excel. Nonlinear regression analyses of binding and cAMP dose-response data were performed using the four-parameter equation: yp=Min+[(Max−Min)/(1+(IC50/x)^slope)]. The Excel Solver function was utilized for parameter optimization, as described previously (Carter, P. H., et al., Endocrinology 140: 4972-4981 (1999); Bowen, W. P., and Jerman, J. C., Trends in Pharmacol. Sci. 16: 413-417 (1995)). Differences between paired data sets were statistically evaluated using a one-tailed Student's t-test, assuming unequal variances for the two sets.

[3] = relative to parent [M]PTH(1-14)

T1 sequence (P25107+P25961 fused with the stated changes): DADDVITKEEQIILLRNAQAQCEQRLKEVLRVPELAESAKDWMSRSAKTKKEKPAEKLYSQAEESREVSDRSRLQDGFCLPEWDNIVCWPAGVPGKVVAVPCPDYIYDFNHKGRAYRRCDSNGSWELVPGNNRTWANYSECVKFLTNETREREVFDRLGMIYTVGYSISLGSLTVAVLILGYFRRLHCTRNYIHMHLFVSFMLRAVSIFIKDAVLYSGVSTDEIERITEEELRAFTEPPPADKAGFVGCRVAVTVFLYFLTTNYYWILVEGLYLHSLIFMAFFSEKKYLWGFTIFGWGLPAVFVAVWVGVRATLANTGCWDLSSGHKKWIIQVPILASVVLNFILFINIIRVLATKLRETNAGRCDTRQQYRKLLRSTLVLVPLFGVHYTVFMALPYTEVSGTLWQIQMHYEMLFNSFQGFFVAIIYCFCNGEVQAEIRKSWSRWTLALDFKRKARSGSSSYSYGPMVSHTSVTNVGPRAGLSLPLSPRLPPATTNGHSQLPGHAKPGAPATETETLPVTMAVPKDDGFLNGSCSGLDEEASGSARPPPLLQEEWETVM

[Ac3c^1,3,Gln^10,Har^11,Ala^12,Trp^14]PTH(1-14)NH2 ([Ac3c]V[Ac3c]EIQLMHQ[hArg]AKW-NH2) [[Ac3c^1,3,M]PTH(1-14)]
P1R binding affinity (in words) [1]: comparable to the parent peptide
cAMP agonist activity / signaling potency (in words) [2]: comparable to the parent peptide

CC[C@H](C)[C@H](NC(=O)[C@H](CCC(=O)O)NC(=O)[C@H](C)NC(=O)[C@@H](NC(=O)[C@H](C)N)C(C)C)C(=O)N[C@@H](CCC(N)=O)C(=O)N[C@@H](CC(C)C)C(=O)N[C@@H](CCSC)C(=O)N[C@@H](Cc1c[nH]cn1)C(=O)N[C@@H](CCC(N)=O)C(=O)N[C@@H](CCCCNC(=N)N)C(=O)N[C@@H](C)C(=O)N[C@@H](CCCCN)C(=O)N[C@@H](Cc1c[nH]c2ccccc12)C(N)=O [[M]PTH(1-14), [Ala^1,3,12,Gln^10,Har^11,Trp^14]PTH(1-14)NH2, reference compound] (H-AVAEIQLMHQ[hArg]AKW-NH2)
EC50 ([2]; HKRK-B28 cells, listed as [Ala^1,3,12,Gln^10,Har^11,Trp^14]PTH(1-14)NH2): 220 ± 80 nM
EC50 ([2]; HKRK-B28 cells): 200 nM
maximum cAMP response ([2]; HKRK-B28 cells, n=7): 225±21 picomoles of cAMP per well

CC[C@H](C)[C@H](NC(=O)[C@H](CCC(=O)O)NC(=O)[C@H](C)NC(=O)[C@@H](NC(=O)[C@H](C)N)C(C)C)C(=O)N[C@@H](CCC(N)=O)C(=O)N[C@@H](CC(C)C)C(=O)N[C@@H](CCSC)C(=O)N[C@@H](Cc1cnc[nH]1)C(=O)N[C@@H](CCC(N)=O)C(=O)N[C@@H](CCCCN=C(N)N)C(=O)N[C@@H](C)C(=O)N[C@@H](CCCCN)C(=O)N[C@@H](Cc1c[nH]c2ccccc12)C(N)=O [[M]PTH(1-14), [Ala^1,3,12,Gln^10,Har^11,Trp^14]PTH(1-14)NH2, reference compound] (H-AVAEIQLMHQ[hArg]AKW-NH2)
IC50 [1]: ~3000 nM and 600 nM

CC[C@H](C)[C@H](NC(=O)[C@H](CCC(=O)O)NC(=O)C(CC)(CC)NC(=O)[C@@H](NC(=O)[C@H](C)N)C(C)C)C(=O)N[C@@H](CCC(N)=O)C(=O)N[C@@H](CC(C)C)C(=O)N[C@@H](CCSC)C(=O)N[C@@H](Cc1c[nH]cn1)C(=O)N[C@@H](CCC(N)=O)C(=O)N[C@@H](CCCCNC(=N)N)C(=O)N[C@@H](C)C(=O)N[C@@H](CCCCN)C(=O)N[C@@H](Cc1c[nH]c2ccccc12)C(N)=O [Deg-3] (H-AV[Deg]EIQLMHQ[hArg]AKW-NH2)
IC50 [1]: ~3000 nM
P1R binding affinity (in words) [1]: little or no effect on binding affinity
binding affinity higher than that of parent [M]PTH(1-14) [1, 3]: around 1.5 fold
cAMP signaling potency diminished relative to parent [M]PTH(1-14) [2]: approximately 10 fold
cAMP signaling potency diminished relative to parent [M]PTH(1-14) ([2]; listed as Deg^3): ~40 fold

[Ac5c^1,Aib^3]PTH(1-9)NH2 ([Ac5c]V[Aib]EIQLMH-NH2; N-terminus assumed; SMILES CC[C@H](C)[C@H](NC(=O)[C@H](CCC(=O)O)NC(=O)C(C)(C)NC(=O)[C@@H](NC(=O)C1(N)CCCC1)C(C)C)C(=O)N[C@@H](CCC(N)=O)C(=O)N[C@@H](CC(C)C)C(=O)N[C@@H](CCSC)C(=O)N[C@@H](Cc1c[nH]cn1)C(N)=O) [[Ac5c^1,Aib^3,M]PTH(1-9)]
inhibition of tracer radioligand binding ([1]; concentrations as high as 1×10^−4M, HKRK-B28 cells): neither peptide inhibited the binding
increase in cAMP levels relative to basal ([2]; HKRK-B28 cells): six
cAMP agonist activity / signaling potency (in words) [2]: clear cAMP response
cAMP agonist activity at single high concentration (in words) [2]: clear agonist activity

Ac3c-3: parent [M]PTH(1-14) analog in which alanine-3 was substituted with 1-aminocyclopropane-1-carboxylic acid (Ac3c)
binding affinity lower than that of parent [M]PTH(1-14) [1, 3]: approximately 10 fold
cAMP-stimulating potency higher than that of parent [M]PTH(1-14) [2]: < two

[Aib^1,3,Gln^10]PTH(1-10)NH2 ([Aib]V[Aib]EIQLMHQ-NH2; N-terminus assumed; SMILES CC[C@H](C)[C@H](NC(=O)[C@H](CCC(=O)O)NC(=O)C(C)(C)NC(=O)[C@@H](NC(=O)C(C)(C)N)C(C)C)C(=O)N[C@@H](CCC(N)=O)C(=O)N[C@@H](CC(C)C)C(=O)N[C@@H](CCSC)C(=O)N[C@@H](Cc1c[nH]cn1)C(=O)N[C@@H](CCC(N)=O)C(N)=O) [ID; NO; 35]
increase in cAMP levels relative to basal ([2]; HKRK-B28 cells): two
activity / cAMP response in cell-based assays (in words) ([2]; P1R-transfected cells): measurable cAMP responses can be detected

CC[C@H](C)[C@H](NC(=O)[C@H](CCC(=O)O)NC(=O)C1(NC(=O)[C@@H](NC(=O)[C@H](C)N)C(C)C)CCCC1)C(=O)N[C@@H](CCC(N)=O)C(=O)N[C@@H](CC(C)C)C(=O)N[C@@H](CCSC)C(=O)N[C@@H](Cc1c[nH]cn1)C(=O)N[C@@H](CCC(N)=O)C(=O)N[C@@H](CCCCNC(=N)N)C(=O)N[C@@H](C)C(=O)N[C@@H](CCCCN)C(=O)N[C@@H](Cc1c[nH]c2ccccc12)C(N)=O [Ac5c^3] (H-AV[Ac5c]EIQLMHQ[hArg]AKW-NH2)
IC50 [1]: ~3000 nM

Ac5c-3: parent [M]PTH(1-14) analog in which alanine-3 was substituted with 1-aminocyclopentane-1-carboxylic acid (Ac5c)
P1R binding affinity (in words) [1]: little or no effect on binding affinity
cAMP-stimulating potency higher than that of parent [M]PTH(1-14) [2]: < two

native PTH(1-9): native PTH(1-9) (SEQ. ID. NO. 33) (SVSEIQLMH-NH2) [reference compound]
cAMP agonist activity at single high concentration (in words) [2]: inactive
